# Experimental data reported in US7291451B2, “Modulation of pericyte proliferation” (XOMA Technology Ltd., priority 2000, dated 2007).
# Experiments:
# [1] = system: ischemia-induced retinal neovascularization; assay: Ischemia-induced retinal neovascularization in neonatal mice; type: in vivo
# Text: To produce ischemia-induced retinal neovascularization, litters of 7-day-old (postnatal day 7, P7) C57BL/6J mice and their nursing mothers were exposed to 75±2% oxygen for 5 days and then returned to ambient air at age P12 as described in Smith et al., Invest. Ophthalmol. Vis. Sci., 1994, 35:101-111. […] Control animals received saline. After sacrifice and enucleation, flat-mounted, fluorescein-conjugated dextran-perfused retinas were examined to assess the retinal vasculature. This mouse model reflects the effects of hypoxia on inducing angiogenesis in the retina. After birth, the mice are exposed to a high level oxygen for 4-5 days. The effect of high levels of oxygen will decrease or prevent the growth of blood vessels in the retina. Once the mice have been removed from the hyperoxic condition to normal oxygen levels, the retina will develop hypoxia due to the lack of blood vessels. The hypoxia in the retina will induce many growth factors (including VEGF) which leads to a angiogenic response that can be quantitated by measuring the number of nuclei in the blood vessels above the internal limiting membrane. This mouse model of angiogenesis is thought to be a good animal reflection of retinopathy of prematurity. The main growth factor responsible for retinal angiogenesis in this mouse model is thought to be due to the expression of VEGF. […] These neovascular rufts were most prominent on P17-19, but after P23 the neovascularization regressed, and the vascular pattern normalized by P26. As described in Aiello et al., Proc. Nat'l Acad. Sci. USA, 1995, 92:10457-61, mice at P17 (n=5) were deeply anesthetized with pentobarbitol sodium (100 mg/kg) and sacrificed by cardiac perfusion with 4% paraformaldehyde in phosphate-buffered saline. Eyes were enucleated and fixed in 4% paraformaldehyde at 4° C. overnight, and enbedded in paraffin. Over 50 serial sections (6 μm) including optic nerve head were placed on microscope slides. After staining with periodic acid/Schiff reagent and hematoxylin, 10 intact sections of equal length, each 30 μm apart, were evaluated for a span of 300 μm. All retinal vascular cell nuclei anterior to the internal limiting membrane were counted in each section by a fully masked protocol. The mean of all 10 counted sections yielded average neovascular cell nuclei per 6 μm section per eye. No vascular cell nuclei anterior to the internal limiting membrane are observed in normal unmanipulated animals.
# [2] = system: retinal neovascularization; assay: Oxygen-pulse induced retinal neovascularization in newborn rats; type: in vivo; conditions: for retinal neovascular score (sum of quadrant scores): P18, vehicle 6.41
# Procedure: In contrast to the assay for anti-angiogenesis effect of BPI protein products in neonatal mice described in part A above, experiments were conducted in newborn rats Crj:CD(SD)IGS (Charles River, Japan). Unlike the method described in part A above of producing ischemia-induced retinal neovascularization by exposing neonatal mice to a constant level of oxygen at 75±2% for 5 days, newborn rats were exposed to oxygen pulses as described below.
# The newborn rats within a few hours after birth were put into the oxygen chamber (780 mm×520 mm×520 mm). The oxygen level in the experimental chamber was controlled with a computer program (Oxycycler, Reming Bioinstruments, N.Y., US). The oxygen level was maintained at 80% for 20.5 hours, then rapidly dropped to 21% for 30 minutes before a gradual return to 80% during the following 3 hours. The program was run for 11 cycles (24 hour per cycle). At the end of 11th cycle (postnatal day 11 (P11)), mothers and newborn rats were transferred to room air condition and kept for 7 days. For a seven day period step newborn rats were injected intraperitoneally with XMP.679 at doses of 2, 6 and 20 mg/kg. On P18, the rats were sacrificed, and the left eyes were enucleated. The eyes were fixed in 4% paraformaldehyde (PFA) for 1 hour. Using scissors, the cornea and sclera were removed from the eyecup. The lens was removed with tweezers, and the vitreous was thoroughly removed with tweezers and scissors. The semi-spherical retina was fixed in 4% PFA and stained, using the method of adenosine diphosphatase (ADPase) histochemistry. Abnormal neovascularization was assessed on P18 by histochemically staining retina for ADPase activity. This procedure preferentially stains retinal vascular endothelium and microglia in rats of this age. The retina was incubated in ADPase incubation medium at 37° C. for 1 hour with gentle agitation. It was then washed thoroughly in cold saline, and treated in a 1:10 dilution of ammonium sulfide for 1 minute. The retina was then washed in […] to remove sulfide. The retina was placed in a small drop of liquid on a saline-coated slide. […] The retina was put in a layer of Perma Fluor® covered with a cover glass. Glomerular buds (tiny popcorn) upon the surface of the regina, fan shaped neovascular fronds, and ridges (vascular complexes that cause a distinct elongate elevation of the retinal surface, and which usually contain several vessels running parallel to the ciliary body) were identified.
# Criteria for scoring neovascular intensity were as follows: 0: Nothing; 1: <5 buds; 2: >5 buds, or a frond; 3: Ridge<half of quadrant; or 4: Ridge>half of quadrant. The retinal neovascular scores were equal to the sum of quadrant scores. […]
substance,measurement,setting,value
"XMP.679: BPI-derived peptide derived from BPI domain II, SEQ ID NO: 3 (KLFKAQAKAKG; XMP.679; listed as Homo sapiens)",decrease of number of nuclei anterior to the internal limiting membrane,"[1]; 10 mg/kg daily intraperitoneal, p<0.001",30 to 40%
same,retinal vasculature compared with control mice,[1]; 10 mg/kg intraperitoneal every 24 hrs P12 to P17,fewer blood vessels with much less density and tortuosity
same,decrease of number of nuclei anterior to the internal limiting membrane,"[1]; 20 mg/kg daily intraperitoneal, p<0.01",approximately 71%
same,inhibition of retinal neovascularization (dose response),[1]; range of 10-20 mg/kg,inhibits retinal neovascularization in a dose responsive manner
same,retinal neovascular score (sum of quadrant scores),[2]; 2 mg/kg/day intraperitoneal,7.29
same,retinal neovascular score (sum of quadrant scores),[2]; 6 mg/kg/day intraperitoneal,4.59
same,change of retinal neovascularization score versus vehicle,"[2]; 6 mg/kg, differences not statistically significant",reduced
same,retinal neovascular score (sum of quadrant scores),[2]; 20 mg/kg/day intraperitoneal,5.56
